# Literature values in patent US20160128943A1, “CONTROLLED RELEASE CAFFEINE DOSAGE FORMS” (priority 2013, published 2016).
# What was measured:
# central nervous system = conditions: after absorption
smiles,measurement,setting,value
Cn1c(=O)c2c(ncn2C)n(C)c1=O [caffeine],time to peak levels in the circulation of the bloodstream,after consumption,fifteen and forty-five
same,average half-life,"average person, after ingestion",three and one half
same,time to maximum effect of central nervous system stimulation,central nervous system,thirty and sixty
